Experimental data from patent US7888050B2, “Method for quantifying phosphokinase activity on proteins” (Life Technologies Corporation, priority 2000, dated 2011).

Biological target: T1, human EGFR (Homo sapiens, UniProt P00533)
T1 construct: purchased Sigma E-2645; host or cells: A431 human carcinoma cells (natural source)
Test: EGFR autophosphorylation, EGFR [pY845] PSSA ELISA
Assay type: biochemical
Settings: purified human EGFR, 1 uM ATP, 30 minutes at 30° C.; FIG. 16
From the text: EGFR System: This model system presents an analysis of the cell surface receptor Epidermal Growth Factor Receptor (EGFR). This protein is a large transmembrane signaling protein with multiple phosphorylation sites consisting of phospho-threonine, phospho-serine and phospho-tyrosine residues. EGFR protein: Human EGFR protein was purified from human carcinoma A431 cells by affinity purification. The product is purchased from Sigma (St. Louis, Mo.; cat #E-2645). EGFR [pY^11731 PSSA: Rabbit antiserum was produced against a chemically synthesized phosphopeptide derived from the region of EGFR that contains tyrosine 1173. The sequence is conserved in human, mouse, and rat. Antibody was purified from serum by sequential epitope-specific chromatography. […] The final product is generated by affinity chromatography using an EGFR derived peptide that is phosphorylated at tyrosine 1173. […] EGFR [Py^8451 PSSA: Prepared essentially as EGFR [pY^1173] PSSA but using chemically synthesized phosphopeptides from the region that contains tyrosine 845. EGFR [Pan] monoclonal antibody: The capture antibody is a mouse monoclonal antibody, clone 199.12, available commercially from Neomarkers, Inc. (Union City, Calif.). […] This antibody will bind to both non-phosphorylated and phosphorylated forms of EGFR protein and therefore is used as an initial capture antibody in the EGFR ELISA. EGFR [Pan] […]

T1 sequence (P00533 25-1210): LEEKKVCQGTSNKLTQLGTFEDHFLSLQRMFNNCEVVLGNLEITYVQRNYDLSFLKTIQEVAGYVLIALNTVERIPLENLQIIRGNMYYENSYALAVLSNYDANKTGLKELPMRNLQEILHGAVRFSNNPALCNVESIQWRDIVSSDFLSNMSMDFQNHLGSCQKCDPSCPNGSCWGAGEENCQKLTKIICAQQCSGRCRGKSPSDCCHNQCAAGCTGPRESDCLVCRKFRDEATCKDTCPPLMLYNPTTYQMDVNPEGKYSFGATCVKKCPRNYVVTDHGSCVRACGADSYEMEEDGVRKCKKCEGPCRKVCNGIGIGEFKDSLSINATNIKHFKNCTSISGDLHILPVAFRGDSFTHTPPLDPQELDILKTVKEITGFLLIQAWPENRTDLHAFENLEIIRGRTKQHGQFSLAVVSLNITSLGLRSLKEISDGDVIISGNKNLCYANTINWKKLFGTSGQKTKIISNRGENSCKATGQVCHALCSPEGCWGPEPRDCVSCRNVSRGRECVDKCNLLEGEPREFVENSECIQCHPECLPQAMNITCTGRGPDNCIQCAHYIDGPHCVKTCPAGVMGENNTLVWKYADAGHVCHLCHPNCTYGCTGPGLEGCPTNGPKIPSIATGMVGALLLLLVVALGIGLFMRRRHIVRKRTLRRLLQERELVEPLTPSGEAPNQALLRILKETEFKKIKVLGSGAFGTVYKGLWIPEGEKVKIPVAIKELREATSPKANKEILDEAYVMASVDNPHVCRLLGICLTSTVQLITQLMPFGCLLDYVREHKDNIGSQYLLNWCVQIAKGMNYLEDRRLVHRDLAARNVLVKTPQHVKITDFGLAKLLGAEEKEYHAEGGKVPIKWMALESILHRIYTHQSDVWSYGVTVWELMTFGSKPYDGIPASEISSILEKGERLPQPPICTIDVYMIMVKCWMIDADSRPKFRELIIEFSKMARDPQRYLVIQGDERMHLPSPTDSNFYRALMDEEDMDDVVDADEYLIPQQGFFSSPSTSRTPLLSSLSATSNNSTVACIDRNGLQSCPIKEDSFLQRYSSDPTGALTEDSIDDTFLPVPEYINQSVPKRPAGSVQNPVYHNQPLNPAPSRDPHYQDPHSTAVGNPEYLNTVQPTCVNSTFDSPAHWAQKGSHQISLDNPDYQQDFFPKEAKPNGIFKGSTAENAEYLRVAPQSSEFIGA

For `CNc1cc2c(Nc3cccc(Br)c3)ncnc2cn1` [PD158780], the “EGFR [pY845] phosphorylation (autophosphorylation)” value was “inhibition of that activity”.
